Test [1] deals with irradiated skin cells. The experiment in a line: colony formation test of irradiated skin cells. The format is cell-based. Particulars: 10 μM for 24 h before irradiation; X-ray 2 Gy once or twice or Sr 90 4 Gy once; vs DMSO, P<0.01. As for the experimental part: To determine the promoting effect of IRF1 inhibitor IRSKIN-1 on irradiated skin cell proliferation, cells were treated with 10 μM IRSKIN-1 or equivalent DMSO for 24 h before irradiation, respectively; subsequently, the cells were subjected to fractionated irradiation at 2 Gy once or at 2 Gy twice or Sr 90 irradiation at 4 Gy once, respectively; subsequently, the effect of IRSKIN-1 on irradiated cell proliferation ability was evaluated by the colony formation test (2,500 cells were spread on each well of a 6-well plate).

Test [2] deals with irradiated skin cells. Nature of the test: mortality of irradiated skin cells by AV/PI staining. The format is cell-based. Particulars: 10 μM for 24 h before irradiation; 20 Gy X-ray once; 3 days after irradiation; vs DMSO, P<0.01. How it is done:
To determine whether IRSKIN-1 reduces the mortality of irradiated skin cells, cells were treated with 10 μM IRSKIN-1 or equivalent DMSO for 24 h before irradiation, respectively; subsequently, the cells were irradiated with 20 Gy X-ray once, and the effect of IRSKIN-1 on irradiated cell proliferation ability was evaluated by AV/PI staining method 3 days after irradiation.

The test system of another test is mouse primary skin cells. Nature of the test: senescence of irradiated primary skin cells by β-galactosidase staining. It is filed as cell-based. Conditions: 10 μM for 24 h before irradiation; 20 Gy X-ray once; 3 days after irradiation; vs DMSO, P<0.01. How it is done:
To determine whether IRSKIN-1 reduces the senescence rate of irradiated skin cells, mouse primary skin cell were isolated and cultured, cells were treated with 10 μM IRSKIN-1 or equivalent DMSO for 24 h before irradiation, respectively; subsequently, the cells were irradiated with 20 Gy X-ray once, and the effect of IRSKIN-1 on irradiated primary cell senescence was evaluated by β-galactosidase staining method 3 days after irradiation.

Test [3] deals with Caspase1, GSDMD and IL1 in irradiated skin cells. The experiment in a line: Western blot of pyroptosis pathway proteins in irradiated skin cells. It is filed as cell-based. Conditions: 10 μM for 24 h before irradiation, 20 Gy X-ray once. As for the experimental part:
To determine the mechanism of the inhibitory effect of IRF1 inhibitor IRSKIN-1 on inflammatory death in the irradiated skin cells, cells were treated with 10 μM IRSKIN-1 or equivalent DMSO for 24 h before irradiation, respectively; subsequently, the cells were irradiated with 20 Gy X-ray once, and changes in key proteins of cell pyroptosis pathway, Caspase1 and GSDMD, and inflammatory factor IL1 were detected by Western blot, so as to determine the inhibitory effect of IRSKIN-1 on inflammatory death in the irradiated skin cells and its mechanism.
(Immunoblotting shows a protein as a band on a membrane.)

Test [4] has as its system inflammatory factors in irradiated skin tissue. The experiment in a line: inflammation microarray of irradiated skin tissue of treated mice. The format is in vivo, mouse. Particulars: s.c. treatment, FIG. 10. As for the experimental part: (§1) Male C57 BL/6J mice aged 6-8 weeks were purchased from GemPharmatech Co., Ltd. The mice were acclimatized and randomized into two groups (6 mice per group); the mice were subcutaneously injected with IRSKIN-1 (which was dissolved in DMSO to prepare a 50 mM solution, 100 μL/time) and equivalent DMSO once 1 and 3 days before irradiation, respectively; based on 1% of the body weight of each mouse, the mouse was anesthetized by intraperitoneal injection of 1% chloral hydrate, the skin of hind limbs of the mouse was depilated, and the mouse was immobilized on a board to reduce accidental movements during irradiation.
(§2) The skin of limbs of mice was irradiated with 6 MeV electron ray generated by Varian 23EX Linear Accelerator (Varian, the USA); the surface was covered with a 1 cm thick bolus, and non-irradiated sites were shielded with a lead plate; the irradiation area was approximately 30×40 mm, the absorbed dose rate was 750 cGy/min, and the total dose was 45 Gy; and the range of the irradiated area was outlined with a marker pen during irradiation.

The subject of test [5] is radiation-induced skin injury in C57 BL/6J mice. Nature of the test: radiation-induced skin injury mouse model, subcutaneous injection. It is filed as in vivo. Particulars: 1 and 3 days before irradiation. As for the experimental part: as §1, §2
A further test addresses T1, IRF1 (Homo sapiens, UniProt P10914).
T1 construct: Human skin keratinocytes (HaCaT cells) were infected in vitro according to a titer of 100 MOI; endogenous in cells; host or cells: HaCaT human skin keratinocytes infected with an h-IRF1 promoter-rluc reporter adenovirus
T1 sequence (P10914 1-325): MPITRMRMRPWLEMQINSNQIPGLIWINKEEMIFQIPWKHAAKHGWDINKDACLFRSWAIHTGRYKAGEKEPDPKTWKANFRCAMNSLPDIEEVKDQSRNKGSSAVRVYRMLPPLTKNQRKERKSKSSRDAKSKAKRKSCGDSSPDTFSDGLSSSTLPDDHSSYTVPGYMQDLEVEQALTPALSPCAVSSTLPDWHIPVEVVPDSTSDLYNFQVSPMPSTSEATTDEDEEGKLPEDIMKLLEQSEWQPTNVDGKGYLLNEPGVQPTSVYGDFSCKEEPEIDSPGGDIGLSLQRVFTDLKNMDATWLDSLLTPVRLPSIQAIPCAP
The experiment in a line: IRF1 transcriptional activity, dual-luciferase reporter system in irradiated HaCaT cells. The format is cell-based. Particulars: 10 μM 24 h before irradiation, X-ray 20 Gy, detection 1 h after irradiation, P<0.01. The source says: To determine the inhibitory effect of the compound (IRSKIN-1) on the transcriptional activity of IRF1, Hanbio Biotechnology (Shanghai) Co., Ltd. was entrusted to construct an h-IRF1 promoter-rluc adenovirus vector. The vector has four binding sites of IRF1, and the downstream of the promoter is a luciferase reporter gene. The virus was constructed based on a dual-luciferase reporter system, and the transcriptional activity of IRF1 could be directly reflected by the luciferase activity. Human skin keratinocytes (HaCaT cells) were infected in vitro according to a titer of 100 MOI, and the virus infection efficiency met the experimental requirement 48 h after infection.
A microplate reader PROMEGA and the corresponding substrates were used for detection 1 h after irradiation.
Background: Reporter assays use an easily measured gene product as a stand-in for the process of interest.

Setting [6] is: s.c. 50 mM in DMSO 100 μL/time, 45 Gy electron ray.

For `O=C(CCn1cnc2ccccc2c1=O)Nc1ccc(S(=O)(=O)N2CCCCC2)cc1` [IRSKIN-1, 3-(4-oxo-3 (4H)-quinazolinyl)-N-[4-(1-piperidinylsulfonyl)phenyl]propanamide], in the test with irradiated skin cells [1], the “clone formation ability of irradiated skin cells” value is “significantly improve”. Further, in the test on irradiated skin cells [2], the “cell mortality after X-ray irradiation (AV/PI staining)” value is given as “reduce cell mortality”. The “β-galactosidase positive rate (senescence) of mouse primary cells” value in the test with mouse primary skin cells was “reduce the β-galactosidase positive rate”. Further, in test [3], the “hydrolysis of Caspase1” value is listed as “inhibit the hydrolysis”, the “hydrolysis of GSDMD” value is listed as “inhibit the hydrolysis” and the “hydrolysis of IL1” value was “inhibit the hydrolysis”. In addition, in test [4], the “expression of BLC in skin tissue” value is “downregulated”, the “expression of G-CSF in skin tissue” value is reported as “upregulated”, the “expression of MIP-1a in skin tissue” value was “upregulated” and the “expression of TNF-R II in skin tissue” value is “upregulated”. Also, in test [5] (s.c. 50 mM 100 μL/time, 45 Gy, FIG. 8, 15 and 30 days after irradiation), the “wet ulcers of the skin” value is on record as “wet ulcers appeared in only fewer areas”. For the same compound, the “progression scores of radiation-induced skin injury” value in test [5] (s.c. 50 mM 100 μL/time, 45 Gy, FIG. 9) is on record as “reducing progression scores”. Besides, in test [5] (setting [6]), the “progression of radiation-induced skin injury vs DMSO group” value is “slower” and the “ulcer wound area vs DMSO group” value is on record as “smaller ulcer wound area”. In addition, the “irradiated IRF1 transcriptional activity (luciferase activity) vs DMSO-treated irradiation group” value at IRF1 is “significantly lower”.
